One may read the IC50 as the concentration at which inhibition is half-maximal. A lower IC50 goes with inhibition by little substance.

From patent US20160376240A1, “6 Phenyl or 6 Pyridin 3 YL Indazole Derivatives and Methods of Use” (ABBVIE INC., priority 2014, published 2016) come the findings set out here.

The experiment concerns the target T1, TrkA (Homo sapiens, UniProt P04629).
T1 construct: purchased Invitrogen PV3144
The experiment is described as follows: TrkA kinase inhibition, HTRF assay. The class given is biochemical. Particulars: LCK peptide substrate 125 nM, TrkA 2-10 nM pre-incubated with ATP 200 μM. Summed up: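 TrkA (2-10 nM) preactivated 20 min with 200 μM ATP in HEPES pH 7.4 with Mg2+/Mn2+, then compound for 10 min, then 125 nM biotinylated LCK-peptide for 1 h at ambient temperature. HTRF 665/620 ratio read; IC50 fitted from initial-rate percent inhibition.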
A general note: TR-FRET usually uses a lanthanide donor and a delayed reading to cut background.

T1 sequence (P04629 33-796): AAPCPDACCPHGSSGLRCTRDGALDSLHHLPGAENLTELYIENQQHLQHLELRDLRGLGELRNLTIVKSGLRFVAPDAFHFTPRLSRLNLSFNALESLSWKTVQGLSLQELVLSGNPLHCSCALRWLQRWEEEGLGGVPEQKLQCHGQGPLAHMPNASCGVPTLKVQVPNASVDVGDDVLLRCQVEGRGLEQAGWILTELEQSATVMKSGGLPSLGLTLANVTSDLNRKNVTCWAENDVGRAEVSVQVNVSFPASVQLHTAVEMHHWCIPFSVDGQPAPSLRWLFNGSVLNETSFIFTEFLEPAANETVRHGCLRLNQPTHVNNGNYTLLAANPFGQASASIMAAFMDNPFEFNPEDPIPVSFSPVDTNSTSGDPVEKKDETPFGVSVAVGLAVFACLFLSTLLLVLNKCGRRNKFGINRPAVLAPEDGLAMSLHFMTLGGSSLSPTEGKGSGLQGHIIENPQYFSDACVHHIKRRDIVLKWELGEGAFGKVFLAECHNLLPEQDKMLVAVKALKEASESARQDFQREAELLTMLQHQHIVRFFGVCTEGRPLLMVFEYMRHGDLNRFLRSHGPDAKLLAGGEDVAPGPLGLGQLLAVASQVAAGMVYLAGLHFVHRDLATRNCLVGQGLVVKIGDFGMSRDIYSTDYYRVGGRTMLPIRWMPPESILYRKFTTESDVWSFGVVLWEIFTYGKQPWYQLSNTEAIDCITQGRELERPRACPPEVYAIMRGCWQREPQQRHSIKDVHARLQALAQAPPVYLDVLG

Turning to `CNC(=O)c1ccc(-c2cc(O[C@H](C)C(F)(F)F)c3c(N)n[nH]c3c2)cc1N1CCN(c2cnccn2)CC1` [Example 55, 4-(3-amino-4-{[(2R)-1,1,1-trifluoropropan-2-yl]oxy}-1H-indazol-6-yl)-N-methyl-2-[4-(pyrazin-2-yl)piperazin-1-yl]benzamide], the IC50 was determined as 0.121 µM. This lies in the sub-micromolar range. As for `Cc1n[nH]c2cc(-c3cncc(N4CCN(c5ccccc5)CC4)c3)cc(OC3CCCC3)c12` [Example 161, 4-(cyclopentyloxy)-3-methyl-6-[5-(4-phenylpiperazin-1-yl)pyridin-3-yl]-1H-indazole], the figure is 0.0737 µM. The compound `CC(C)(C)C(=O)N1CCN(c2cc(-c3cc(OC4CCOCC4)c4c(N)n[nH]c4c3)ccc2C(=O)NC2CC2)CC1` [Example 25, 4-[3-amino-4-(tetrahydro-2H-pyran-4-yloxy)-1H-indazol-6-yl]-N-cyclopropyl-2-[4-(2,2-dimethylpropanoyl)piperazin-1-yl]benzamide] returned an IC50 of 0.188 µM. Under `CC(=O)N1CCN(c2cc(-c3cc(OC4CCOCC4)c4c(N)n[nH]c4c3)ccc2C(N)=O)CC1` [Example 4, 2-(4-acetylpiperazin-1-yl)-4-[3-amino-4-(tetrahydro-2H-pyran-4-yloxy)-1H-indazol-6-yl]benzamide] stands 0.147 µM; under `CC(Oc1cc(-c2ccc(C(N)=O)c(N3CCN(c4ccncc4)CC3)c2)cc2[nH]nc(N)c12)C(F)(F)F` (stereo not drawn) [Example 98, 4-{3-amino-4-[(1,1,1-trifluoropropan-2-yl)oxy]-1H-indazol-6-yl}-2-[4-(pyridin-4-yl)piperazin-1-yl]benzamide], 0.539 µM. As for `Cc1n[nH]c2cc(-c3ccc(C(N)=O)c(N4CCN(C(=O)OC(C)C)CC4)c3)cc(OC3CCOCC3)c12` [Example 142, isopropyl 4-{2-carbamoyl-5-[3-methyl-4-(tetrahydro-2H-pyran-4-yloxy)-1H-indazol-6-yl]phenyl}piperazine-1-carboxylate], the figure is 0.0232 µM; as for `CNC(=O)c1ccc(-c2cc(O[C@@H](C)C(F)(F)F)c3c(N)n[nH]c3c2)cc1N1CCN(c2ncccn2)CC1` [Example 43, 4-(3-amino-4-{[(2S)-1,1,1-trifluoropropan-2-yl]oxy}-1H-indazol-6-yl)-N-methyl-2-[4-(pyrimidin-2-yl)piperazin-1-yl]benzamide], 0.0631 µM; as for `CCOC(=O)N1CCN(c2cc(-c3cc(OC4CCOCC4)c4c(C)n[nH]c4c3)ccc2C(=O)NC)CC1` [Example 134, ethyl 4-{2-(methylcarbamoyl)-5-[3-methyl-4-(tetrahydro-2H-pyran-4-yloxy)-1H-indazol-6-yl]phenyl}piperazine-1-carboxylate], 0.0127 µM. The compound `Cc1n[nH]c2cc(-c3ccc(C(N)=O)cc3)cc(OC3CCOCC3)c12` [Example 132, 4-[3-methyl-4-(tetrahydro-2H-pyran-4-yloxy)-1H-indazol-6-yl]benzamide] gave an IC50 of 0.0341 µM.

Compound `NC(=O)c1ccc(-c2cc(O[C@H]3CCOC3)c3c(N)n[nH]c3c2)cc1N1CCN(c2ccccc2)CC1` [Example 66, 4-{3-amino-4-[(3S)-tetrahydrofuran-3-yloxy]-1H-indazol-6-yl}-2-(4-phenylpiperazin-1-yl)benzamide] gave an IC50 of 0.00293 µM. Compared with the last compound, the IC50 is about 12-fold lower. As for `CC(=O)c1ccc(-c2cc(OC3CCOCC3)c3c(N)n[nH]c3c2)cc1N1CCN(c2nccs2)CC1` [Example 21, 1-{4-[3-amino-4-(tetrahydro-2H-pyran-4-yloxy)-1H-indazol-6-yl]-2-[4-(1,3-thiazol-2-yl)piperazin-1-yl]phenyl}ethanone], the IC50 was determined as 0.0333 µM. Compound `CNC(=O)c1ccc(-c2cc(O[C@H](C)C(F)(F)F)c3c(N)n[nH]c3c2)cc1N1CCN(c2ccccc2)CC1` [Example 48, 4-(3-amino-4-{[(2R)-1,1,1-trifluoropropan-2-yl]oxy}-1H-indazol-6-yl)-N-methyl-2-(4-phenylpiperazin-1-yl)benzamide] yielded an IC50 of 0.0385 µM. As for `Cc1n[nH]c2cc(-c3ccc(C(N)=O)c(N4CC5(CN(CC(F)(F)F)C5)C4)c3)cc(OC3CCOCC3)c12` [Example 166, 4-[3-methyl-4-(tetrahydro-2H-pyran-4-yloxy)-1H-indazol-6-yl]-2-[6-(2,2,2-trifluoroethyl)-2,6-diazaspiro[3.3]hept-2-yl]benzamide], the figure is 1.04 µM.

`CNC(=O)c1ccc(-c2cc(OC3CCOCC3)c3c(N)n[nH]c3c2)cc1N1CCN(CC(F)(F)C(F)F)CC1` [Example 167, 4-[3-amino-4-(tetrahydro-2H-pyran-4-yloxy)-1H-indazol-6-yl]-N-methyl-2-[4-(2,2,3,3-tetrafluoropropyl)piperazin-1-yl]benzamide] registered a 50% inhibitory concentration (IC50) of 0.0115 µM. In the case of `Nc1n[nH]c2cc(-c3ccc(C(=O)NC4CC4)c(N4CCN(c5cccnc5)CC4)c3)cc(OC3CCOCC3)c12` [Example 24, 4-[3-amino-4-(tetrahydro-2H-pyran-4-yloxy)-1H-indazol-6-yl]-N-cyclopropyl-2-[4-(pyridin-3-yl)piperazin-1-yl]benzamide], half-maximal inhibition (IC50) was put at 0.0204 µM. This IC50 lies about 1.8-fold higher than the previous one. Under `CNC(=O)c1ccc(-c2cc(O[C@H](C)C(F)(F)F)c3c(N)n[nH]c3c2)cc1N1CCC(N2CCOCC2)CC1` [Example 59, 4-(3-amino-4-{[(2R)-1,1,1-trifluoropropan-2-yl]oxy}-1H-indazol-6-yl)-N-methyl-2-[4-(morpholin-4-yl)piperidin-1-yl]benzamide] stands 2.55 µM; under `NC(=O)c1ccc(-c2cc(OC3CCCC3)c3c(N)n[nH]c3c2)cc1N1CCN(C(=O)N2CCOCC2)CC1` [Example 82, 4-[3-amino-4-(cyclopentyloxy)-1H-indazol-6-yl]-2-[4-(morpholin-4-ylcarbonyl)piperazin-1-yl]benzamide], 0.0223 µM; under `NC(=O)c1ccc(-c2ccc3c(N)n[nH]c3c2)cc1N1CCN(c2ccccn2)CC1` [Example 86, 4-(3-amino-1H-indazol-6-yl)-2-[4-(pyridin-2-yl)piperazin-1-yl]benzamide], 0.0161 µM. With `CNC(=O)c1ccc(-c2cc(OC3CCOCC3)c3c(C)n[nH]c3c2)cc1N1CCN(S(=O)(=O)c2ccc(C)cc2)CC1` [Example 152, N-methyl-2-{4-[(4-methylphenyl)sulfonyl]piperazin-1-yl}-4-[3-methyl-4-(tetrahydro-2H-pyran-4-yloxy)-1H-indazol-6-yl]benzamide], the IC50 was determined as 0.00748 µM. Against the preceding compound, the IC50 is about 2.2-fold lower. Under `CNC(=O)c1ccc(-c2cc(OC3CCOCC3)c3c(N)n[nH]c3c2)cc1N1CCN(CC(F)(F)C(F)(F)F)CC1` [Example 170, 4-[3-amino-4-(tetrahydro-2H-pyran-4-yloxy)-1H-indazol-6-yl]-N-methyl-2-[4-(2,2,3,3,3-pentafluoropropyl)piperazin-1-yl]benzamide] stands 0.0178 µM. In turn, `CC(=O)c1ccc(-c2cc(OC3CCOCC3)c3c(N)n[nH]c3c2)cc1N1CCN(c2ccc(F)cc2)CC1` [Example 17, 1-{4-[3-amino-4-(tetrahydro-2H-pyran-4-yloxy)-1H-indazol-6-yl]-2-[4-(4-fluorophenyl)piperazin-1-yl]phenyl}ethanone] showed an IC50 of 0.0134 µM. As for `CCCOC(=O)N1CCN(c2cc(-c3cc(OC4CCOCC4)c4c(C)n[nH]c4c3)ccc2C(=O)NC)CC1` [Example 135, propyl 4-{2-(methylcarbamoyl)-5-[3-methyl-4-(tetrahydro-2H-pyran-4-yloxy)-1H-indazol-6-yl]phenyl}piperazine-1-carboxylate], the figure is 0.00829 µM; as for `CNC(=O)c1ccc(-c2cc(O[C@H](C)C(F)(F)F)c3c(N)n[nH]c3c2)cc1N1CCN2CCCCC2C1` (stereo partly drawn) [Example 57, 4-(3-amino-4-{[(2R)-1,1,1-trifluoropropan-2-yl]oxy}-1H-indazol-6-yl)-N-methyl-2-(octahydro-2H-pyrido[1,2-a]pyrazin-2-yl)benzamide], 6.32 µM; as for `CNC(=O)c1ccc(-c2cc(O[C@@H](C)C(F)(F)F)c3c(N)n[nH]c3c2)cc1N1CCN(c2ccccc2)CC1` [Example 39, 4-(3-amino-4-{[(2S)-1,1,1-trifluoropropan-2-yl]oxy}-1H-indazol-6-yl)-N-methyl-2-(4-phenylpiperazin-1-yl)benzamide], 0.0417 µM. In turn, `NC(=O)c1ccc(-c2cc(OC3CCOCC3)c3c(N)n[nH]c3c2)cc1N1CCN(CCN2CCOCC2)CC1` [Example 5, 4-[3-amino-4-(tetrahydro-2H-pyran-4-yloxy)-1H-indazol-6-yl]-2-{4-[2-(morpholin-4-yl)ethyl]piperazin-1-yl}benzamide] yielded an IC50 of 0.037 µM. As for `CNC(=O)c1ccc(-c2cc(OC3CCCC3)c3c(C)n[nH]c3c2)cc1N1CCN(C(=O)OCc2ccccc2)CC1` [Example 129, benzyl 4-{5-[4-(cyclopentyloxy)-3-methyl-1H-indazol-6-yl]-2-(methylcarbamoyl)phenyl}piperazine-1-carboxylate], the figure is 0.0508 µM; as for `CNC(=O)c1ccc(-c2cc(OC3CCOCC3)c3c(N)n[nH]c3c2)cc1N1CCN(CC(F)F)CC1` [Example 169, 4-[3-amino-4-(tetrahydro-2H-pyran-4-yloxy)-1H-indazol-6-yl]-2-[4-(2,2-difluoroethyl)piperazin-1-yl]-N-methylbenzamide], 0.038 µM; as for `NC(=O)c1ccc(-c2cc(OC3CCCC3)c3c(N)n[nH]c3c2)cc1N1CCN(C(=O)c2ccccc2)CC1` [Example 80, 4-[3-amino-4-(cyclopentyloxy)-1H-indazol-6-yl]-2-(4-benzoylpiperazin-1-yl)benzamide], 0.0175 µM.

`CC(=O)Nc1ccc(-c2cc(OC3CCOCC3)c3c(C)n[nH]c3c2)cc1N1CCN(Cc2cccc(F)c2)CC1` [Example 149, N-{2-[4-(3-fluorobenzyl)piperazin-1-yl]-4-[3-methyl-4-(tetrahydro-2H-pyran-4-yloxy)-1H-indazol-6-yl]phenyl}acetamide] came in with an IC50 of 0.025 µM. Under `Cc1n[nH]c2cc(-c3ccc(NS(C)(=O)=O)c(N4CCN(C(=O)OC(C)(C)C)CC4)c3)cc(OC3CCOCC3)c12` [Example 162, tert-butyl 4-{2-[(methylsulfonyl)amino]-5-[3-methyl-4-(tetrahydro-2H-pyran-4-yloxy)-1H-indazol-6-yl]phenyl}piperazine-1-carboxylate] stands 0.0281 µM.
